Patent US10035806B2, “Derivatized corroles and metallocorroles and their use as imaging and therapeutic agents” (CALIFORNIA INSTITUTE OF TECHNOLOGY, priority 2015, dated 2018)
Marks after values point to notes of the source that are not given here.

Columns and labels:
[1] = system: MDA-MB-435; assay: NCI60 anticancer drug screen; assay type: cell-based, human; details: MDA-MB-435 (Melanoma), 10 μM, 48 h
From the text: (§1) The aminocaproate-substituted corrole Complex 3 was submitted to NCI for cytotoxic screening at a single high dose (10−5M) in a panel of 60 human tumor cell lines (NCI60). Details of the cytotoxicity assessment in the NCI anticancer drug screen have been described previously, in Monks A, et al. (1991) Feasibility of a high-flux anticancer drug screen using a diverse panel of cultured human tumor cell lines. J Natl Cancer Inst 83(11):757-766, this reference being incorporated by reference for these teachings.
(§2) In view of the promising results observed for carboxylated corroles, Complex 3 was selected for expanded cell screening to uncover additional susceptible cancer cell lines. The cytotoxic activity of Complex 3 was tested at a dose of 10^−5 M against 60 human cancer cell lines representing nine distinct tumor types in the anticancer screening program of the National Cancer Institute (NCI). The in vitro parameters for cytotoxicity, growth percent, and lethality were obtained for Complex 3 and reported as a mean graph of the percent growth of treated cells (FIG. 7). Bars in the mean graph depict the deviation of individual tumor cell lines from the overall mean value for all cells tested. Bars that project to the right of the mean represent cell lines that are more sensitive to Complex 3, whereas cell lines less sensitive to the compound display bars that project to the left.
(§3) The numerical values associated with this assay represent growth relative to the no-drug control and the numbers of cells at time 0 (FIG. 7). This allows detection of both growth inhibition (values between 0 and 100) and lethality (values less than 0). For example, a value of 100 signifies no growth inhibition, 40 means 60% growth inhibition, 0 means no net growth over the course of the experiment, −40 means 40% lethality, and −100 indicates all cells are dead. […] Growth inhibitions reflect cytostatic activity of the compound as previously shown for Complex 2. In contrast, cell lethality is only evident in melanoma cells, specifically the LOX IMVI and SK-MEL-28 cell lines.

[2] = system: HT29; assay: NCI60 anticancer drug screen; assay type: cell-based, human; details: HT29 (Colon cancer), 10 μM, 48 h
From the text: as §1, §2, §3

[3] = system: MDA-MB-231/ATCC; assay: NCI60 anticancer drug screen; assay type: cell-based, human; details: MDA-MB-231/ATCC (Breast Cancer), 10 μM, 48 h
From the text: as §1, §2, §3

[4] = system: SF-295; assay: NCI60 anticancer drug screen; assay type: cell-based, human; details: SF-295 (CNS Cancer), 10 μM, 48 h
From the text: as §1, §2, §3

[5] = system: EKVX; assay: NCI60 anticancer drug screen; assay type: cell-based, human; details: EKVX (Non-small-cell lung cancer), 10 μM, 48 h
From the text: as §1, §2, §3

[6] = system: OVCAR-4; assay: NCI60 anticancer drug screen; assay type: cell-based, human; details: OVCAR-4 (Ovarian Cancer), 10 μM, 48 h
From the text: as §1, §2, §3

[7] = system: A549/ATCC; assay: NCI60 anticancer drug screen; assay type: cell-based, human; details: A549/ATCC (Non-small-cell lung cancer), 10 μM, 48 h
From the text: as §1, §2, §3

[8] = system: NCI-H522; assay: NCI60 anticancer drug screen; assay type: cell-based, human; details: NCI-H522 (Non-small-cell lung cancer), 10 μM, 48 h
From the text: as §1, §2, §3

[9] = system: TK-10; assay: NCI60 anticancer drug screen; assay type: cell-based, human; details: TK-10 (Renal Cancer), 10 μM, 48 h
From the text: as §1, §2, §3

[10] = system: HCT-116; assay: NCI60 anticancer drug screen; assay type: cell-based, human; details: HCT-116 (Colon cancer), 10 μM, 48 h
From the text: as §1, §2, §3

[11] = system: OVCAR-3; assay: NCI60 anticancer drug screen; assay type: cell-based, human; details: OVCAR-3 (Ovarian Cancer), 10 μM, 48 h
From the text: as §1, §2, §3

[12] = system: M14; assay: NCI60 anticancer drug screen; assay type: cell-based, human; details: M14 (Melanoma), 10 μM, 48 h
From the text: as §1, §2, §3

[13] = system: DU-145; assay: MTS assay (cytotoxicity); assay type: cell-based, human; details: DU-145 (prostate), 72 h exposure in the dark, MTS assay, mean of three experiments
From the text: (§4) Reagents were obtained from the indicated suppliers: HBSS without phenol red and trypsin-EDTA (0.25%), Invitrogen/Gibco; PBS, Mediatech; 4′,6-diamidino-2-phenylindole dihydrochloride (DAPI) and DMSO, Sigma-Aldrich; paraformaldehyde, Electron Microscopy Sciences; WGA, Alexa Fluor 488 conjugate, Invitrogen/Molecular Probes; and ProLong Gold Antifade Mountant with DAPI, Life Technologies. Human Cancer Cell Lines. Four cell lines from the NCI60 cell panel (Shoemaker RH (2006) The NCI60 human tumour cell line anticancer drug screen. Nat Rev Cancer 6(10):813-823) representing four distinct tumor types were used in this study: DU-145, prostate; MDA-MB-231, breast; SK-MEL-28, melanoma; and OVCAR-3, ovarian. Cells were grown in RPMI 1640 cell culture medium (Mediatech) containing 2 mM L-glutamine, supplemented with 10% FBS (Omega Scientific), and maintained at 37° C. under 5% CO2 in a humidified incubator.
(§5) At the time of drug treatment, stock solutions of 1-4 were diluted to 10-fold the desired final test concentrations with RPMI medium 1640. Aliquots of […] of these diluted solutions were added to the appropriate microtiter wells containing 90 μL of medium, resulting in the required final drug concentrations (eight concentrations per compound, ranging from 0.3 to 600 μM). The final concentration of DMSO in test culture was <1%. […] Following 72 h of exposure at 37° C., cell viability was determined using the MTS assay (CellTiter 96 Aqueous One Cell Proliferation Assay; Promega) according to the manufacturer's instructions. Absorbances were measured using a microplate reader (Synergy 4; Biotek Instruments) at 490 nm. Experiments were performed in triplicate and each dose-response curve represents the mean of three or more independent experiments. Spectrophotometric data were analyzed by sigmoid dose-response, nonlinear regression analysis; the IC50, Emax values, and associated SE were calculated using GraphPad Prism 6 (GraphPad Software).
(§6) The effects of bis-sulfonate, carboxylate, and aminocaproate ring substituents on gallium corrole cytotoxicities were examined using four human cancer cell lines, representing tumors of different origin selected based on previously described sensitivities.

[14] = system: SK-MEL-28; assay: MTS assay (cytotoxicity); assay type: cell-based, human; details: SK-MEL-28 (melanoma), 72 h exposure in the dark, mean of three experiments
From the text: as §4, §5, §6

[15] = system: OVCAR-3; assay: MTS assay (cytotoxicity); assay type: cell-based, human; details: OVCAR-3 (ovarian), 72 h exposure in the dark, mean of three experiments
From the text: as §4, §5, §6

[16] = system: 60 human tumor cell lines (NCI60); assay: NCI60 anticancer drug screen, whole panel; assay type: cell-based; details: 10 μM, 48 h
From the text: as §1
as §2, with “left. […]” for “left.”

[17] = system: SK-MEL-28; assay: NCI60 anticancer drug screen; assay type: cell-based, human; details: SK-MEL-28 (Melanoma), 10 μM, 48 h; lethality rather than inhibition

## O=C(O)CCCCCNc1c(F)c(F)c(C2=C3C=CC4=[N+]3[Ga-]35[n]6c2ccc6C(c2c(F)c(F)c(F)c(F)c2F)=c2ccc([n]23)=C(c2c(F)c(F)c(F)c(F)c2F)c2ccc4[n]25)c(F)c1F (stereo not drawn) [Complex 3]
[1]
  Growth inhibition, %: 90.8%
[2]
  Growth inhibition, %: 60.6%
[3]
  Growth inhibition, %: 72.5%
[4]
  Growth inhibition, %: 53.2%
[5]
  Growth inhibition, %: 59.7%
[6]
  Growth inhibition, %: 59.9%
[7]
  Growth inhibition, %: 82.7%
[8]
  Growth inhibition, %: 44.6%
[9]
  Growth inhibition, %: 47.3%
[10]
  Growth inhibition, %: 75.5%
[11]
  Growth inhibition, %: 75.9%
[12]
  Growth inhibition, %: 84.1%
[13]
  IC50: 17.6 µM
[14]
  IC50: 14.4 µM
[15]
  IC50: 12.7 µM
[16]
  activity against all NCI60 cell lines derived from nine tumor types: highly active
[16]; NCI60 panel
  average growth inhibition: 70%
[17]
  % lethality: 12.1** %
